Measurements as given in US20180185408A1, “ANTIFUNGAL NYLON-3 POLYMERS AND COMBINATION THERAPY USING THEM TO TREAT FUNGAL INFECTIONS” (priority 2016, published 2018).
Values after ≈ are worked out from the molar mass of the structure shown. Values joined by “and” are separate entries in the source; they are usually repeats but may differ in a detail not shown here. Equal entries are not always repeated. Where two headings read alike, the source gives them in different places.

What was measured:
Format in all cases: cell-based
Candida albicans [1] = experiment: Minimum fungicidal concentration (MFC), plating after MIC assay
Cryptococcus gattii [2] = experiment: MIC by broth microdilution (CLSI M27-A3); conditions: Cryptococcus gattii, […]10^3 cells/mL, read-out: MIC
filamentous fungi = experiment: MIC100 against non-Aspergillus filamentous fungi (CLSI M38-A2); conditions: Cryptococcus depauperatus, CBS7855; Filobasidiella depauperata isolate CBS 7855; 50% reduction in growth
Cryptococcus spp. = experiment: MIC and MFC by broth microdilution, summary over Cryptococcus strains
Cryptococcus neoformans [3] = experiment: Minimum fungicidal concentration (MFC), plating after MIC assay
Candida lusitaniae [4] = experiment: MIC by broth microdilution (CLSI M27-A3)
Candida albicans [5] = experiment: MIC by broth microdilution (CLSI M27-A3); design: polymer efficacy against budding yeasts, 50%: unit not given here; conditions: for MIC: read-out: MIC
Candida spp. = experiment: MIC and MFC by broth microdilution, summary over Candida strains
Cryptococcus neoformans [6] = experiment: MIC by broth microdilution (CLSI M27-A3); conditions: for MIC: […]10^3 cells/mL
Cryptococcus gattii [7] = experiment: Minimum fungicidal concentration (MFC), plating after MIC assay; conditions: Cryptococcus gattii, Sensitive, RPMI 1640 (0.2% Glucose), […]10^3 cells/mL, 37° C., read-out: MFC
Candida lusitaniae [8] = experiment: as above; conditions: Clavispora lusitaniae, C. Lusitania (CL3), Sensitive; RPMI 1640 (0.2% Glucose); […]10^5 cells/mL; 30° C.; read-out: MFC

Compound OC(Cn1cncn1)(Cn1cncn1)c1ccc(F)cc1F [FLC, fluconazole] has an MFC (Candida albicans [1]; C. albicans (E4), Amp B Resistant, RPMI 1640 (0.2% Glucose), […]10^5 cells/mL, 30° C.) greater than 200 µg/mL, an MFC (Candida albicans [1]; C. albicans (Gu5), Fluconazole Resistant, RPMI 1640 (0.2% Glucose), […]10^5 cells/mL, 30° C.) greater than 200 µg/mL and an MFC (Candida albicans [1]; C. albicans (K1), Fluconazole Resistant, RPMI 1640 (0.2% Glucose), […]10^5 cells/mL, 30° C.) greater than 200 µg/mL. The MFC (Candida albicans [1]; C. albicans (SCG5314), Sensitive, RPMI 1640 (0.2% Glucose), […]10^5 cells/mL, 30° C.) was greater than 200 µg/mL, the MFC (Candida albicans [1]; Candida albicans, SC5314, read-out: MFC) was > 200 µg/mL and > 653 µM and the MFC (Candida albicans [1]; Candida albicans, read-out: MFC) was > 200 µg/mL and > 653 µM. For the same compound, the MFC (Candida albicans [1]; E4, […]10^5 cells/mL, 30°C, avg., listed as FLU) was greater than 200 µg/mL, the MFC (Candida albicans [1]; E4, […]10^5 cells/mL, 30°C, avg., listed as FLU, read-out: MFC) was greater than 653 µM and the MFC (Candida albicans [1]; E4, […]10^5 cells/mL, 30°C, trial 1, listed as FLU) was greater than 200 µg/mL. It also gave an MFC (Candida albicans [1]; E4, […]10^5 cells/mL, 30°C, trial 1, listed as FLU, read-out: MFC) greater than 653 µM, an MFC (Candida albicans [1]; E4, […]10^5 cells/mL, 30°C, trial 2, listed as FLU) greater than 200 µg/mL and an MFC (Candida albicans [1]; E4, […]10^5 cells/mL, 30°C, trial 2, listed as FLU, read-out: MFC) greater than 653 µM. For the same compound, the MFC (Candida albicans [1]; Gu5, […]10^5 cells/mL, 30°C, avg., listed as FLU) was greater than 200 µg/mL, the MFC (Candida albicans [1]; Gu5, […]10^5 cells/mL, 30°C, avg., listed as FLU, read-out: MFC) was greater than 653 µM and the MFC (Candida albicans [1]; Gu5, […]10^5 cells/mL, 30°C, trial 1, listed as FLU) was greater than 200 µg/mL. For the same compound, the MFC (Candida albicans [1]; Gu5, […]10^5 cells/mL, 30°C, trial 1, listed as FLU, read-out: MFC) was greater than 653 µM, the MFC (Candida albicans [1]; Gu5, […]10^5 cells/mL, 30°C, trial 2, listed as FLU) was greater than 200 µg/mL and the MFC (Candida albicans [1]; Gu5, […]10^5 cells/mL, 30°C, trial 2, listed as FLU, read-out: MFC) was greater than 653 µM. For the same compound, the MFC (Candida albicans [1]; K1, […]10^5 cells/mL, 30°C, avg., listed as FLU) was greater than 200 µg/mL, the MFC (Candida albicans [1]; K1, […]10^5 cells/mL, 30°C, avg., listed as FLU, read-out: MFC) was greater than 653 µM and the MFC (Candida albicans [1]; K1, […]10^5 cells/mL, 30°C, trial 2, listed as FLU) was greater than 200 µg/mL. The MFC (Candida albicans [1]; K1, […]10^5 cells/mL, 30°C, trial 2, listed as FLU, read-out: MFC) was greater than 653 µM, the MFC (Candida albicans [1]; SC5314, […]10^5 cells/mL, 30°C, avg., listed as FLU) was greater than 200 µg/mL and the MFC (Candida albicans [1]; SC5314, […]10^5 cells/mL, 30°C, avg., listed as FLU, read-out: MFC) was greater than 653 µM. It also gave an MFC (Candida albicans [1]; SC5314, […]10^5 cells/mL, 30°C, trial 1, listed as FLU) greater than 200 µg/mL, an MFC (Candida albicans [1]; SC5314, […]10^5 cells/mL, 30°C, trial 1, listed as FLU, read-out: MFC) greater than 653 µM and an MIC (Cryptococcus gattii [2]; 48 h, C751, 30°C, OD600 48 h, Table 15) of 5.2 µM. For the same compound, the MIC (Cryptococcus gattii [2]; 48 h, C751, 30°C, OD600 48 h) was 1.6 µg/mL, the MIC (Cryptococcus gattii [2]; 48 h, WM276, 30°C, OD600 48 h, Table 15) was 2.6 µM and the MIC (Cryptococcus gattii [2]; 48 h, WM276, 30°C, OD600 48 h) was 0.8 µg/mL. It also gave an MIC (Cryptococcus gattii [2]; C. gattii (C751), Sensitive, RPMI 1640 (0.2% Glucose), 37° C.) of 1.6 µg/mL, an MIC (Cryptococcus gattii [2]; C. gattii (C751), 30°C) of 5.2 µM and an MIC (Cryptococcus gattii [2]; C. gattii (WM275), Sensitive, RPMI 1640 (0.2% Glucose), 37° C.) of 0.8 µg/mL. For the same compound, the MIC (Cryptococcus gattii [2]; C. gattii (WM276), 30°C) was 2.6 µM, the MIC50 (filamentous fungi) was 64 µg/mL (≈ 209 µM) and the MIC (Cryptococcus spp.; Cryptococcus) was no more than 10 µM. The MFC (Cryptococcus spp.; Cryptococcus test strains (FLC: all strains except C21F3), read-out: MFC) was greater than 100 µM, the “concentration at which strain was killed (MFC)” value (Cryptococcus neoformans [3]; C21F3) was roughly 5 µM and the MFC (Cryptococcus neoformans [3]; Cryptococcus neoformans, C. neoformans (C21F3), Rapamycin Resistant, RPMI 1640 (0.2% Glucose), […]10^3 cells/mL, 37° C.) was 1.6 µg/mL (≈ 5.22 µM). For the same compound, the MIC (Candida lusitaniae [4]; CL3, […]10^3 cells/mL, 35°C, OD600 24 h, avg., listed as FLU) was greater than 200 µg/mL, the MIC (Candida lusitaniae [4]; CL3, […]10^3 cells/mL, 35°C, OD600 24 h, avg., listed as FLU, read-out: MIC) was greater than 653.0 µM and the MIC (Candida lusitaniae [4]; CL3, […]10^3 cells/mL, 35°C, OD600 24 h, trial 2, listed as FLU) was greater than 200 µg/mL. For the same compound, the MIC (Candida lusitaniae [4]; CL3, […]10^3 cells/mL, 35°C, OD600 24 h, trial 2, listed as FLU, read-out: MIC) was greater than 653.0 µM, the MIC (Candida lusitaniae [4]; CL3, […]10^5 cells/mL, 30°C, OD600 48 h, avg., listed as FLU) was 0.8 µg/mL and the MIC (Candida lusitaniae [4]; CL3, […]10^5 cells/mL, 30°C, OD600 48 h, avg., listed as FLU, read-out: MIC) was 2.6 µM. The MIC (Candida lusitaniae [4]; CL3, […]10^5 cells/mL, 30°C, OD600 48 h, trial 2, listed as FLU) was 0.8 µg/mL, the MIC (Candida lusitaniae [4]; CL3, […]10^5 cells/mL, 30°C, OD600 48 h, trial 2, listed as FLU, read-out: MIC) was 2.6 µM and the MIC (Candida lusitaniae [4]; Clavispora lusitaniae, 24 h, read-out: MIC) was > 200 µg/mL and > 653 µM. For the same compound, the MIC (Candida lusitaniae [4]; Clavispora lusitaniae, 48 h, read-out: MIC) was 0.8 µg/mL and 2.6 µM, the MIC50 (Candida albicans [5]; ATCC90028, Candida albicans ATCC 90028) was 1 µg/mL (≈ 3.27 µM) and the “polymer efficacy against budding yeasts, 50%” value (from here on “polymer efficacy … 50%”) (Candida albicans [5]; C. albicans CA1, ATCC90028, Blood) was 1. The “polymer efficacy … 50%” value (Candida albicans [5]; C. albicans CA2, SC5314) was 0.25, the “polymer efficacy … 50%” value (Candida albicans [5]; C. albicans CA3, Blood, Azole resistant) was greater than 64 and the MIC50 (Candida albicans [5]; Candida albicans CA3, Resistance Azole) was greater than 64 µg/mL. For the same compound, the MIC (Candida albicans [5]; Candida albicans, C. albicans (E4), Amp B Resistant, RPMI 1640 (0.2% Glucose), […]10^5 cells/mL, 30° C.) was greater than 200 µg/mL, the MIC (Candida albicans [5]; Candida albicans, C. albicans (E4), […]10^3 cells/mL, 35°C) was greater than 654 µM and the MIC (Candida albicans [5]; Candida albicans, C. albicans (Gu5), Fluconazole Resistant, RPMI 1640 (0.2% Glucose), […]10^5 cells/mL, 30° C.) was greater than 200 µg/mL. It also gave an MIC (Candida albicans [5]; Candida albicans, C. albicans (Gu5), […]10^3 cells/mL, 35°C) greater than 654 µM, an MIC (Candida albicans [5]; Candida albicans, C. albicans (K1), Fluconazole Resistant, RPMI 1640 (0.2% Glucose), […]10^5 cells/mL, 30° C.) greater than 200 µg/mL and an MIC (Candida albicans [5]; Candida albicans, C. albicans (K1), […]10^3 cells/mL, 35°C) greater than 654 µM. It also gave an MIC (Candida albicans [5]; Candida albicans, C. albicans (SCG5314), Sensitive, RPMI 1640 (0.2% Glucose), […]10^5 cells/mL, 30° C.) of less than 0.2 µg/mL, an MIC50 (Candida albicans [5]; Candida albicans, SC5314) of 0.25 µg/mL (≈ 0.816 µM) and an MIC (Candida albicans [5]; Candida albicans, SC5314, C. albicans (SC5314), […]10^3 cells/mL, 35°C) greater than 654 µM. The MFC (Candida spp.; Candida resistant strains (totally resistant)) was greater than 654 µM, the “MIC and MFC values” (Candida spp.; Candida sensitive strains) was “low μM” and the “polymer efficacy … 50%” value (Cryptococcus neoformans [6]) was greater than 64. The “polymer efficacy … 50%” value (Cryptococcus neoformans [6]; C. neoformans CN1, Clinical isolate, Azole susceptible) was 4, the MIC (Cryptococcus neoformans [6]; Cryptococcus neoformans, 48 h, C21F3, 30°C, OD600 48 h) was 1.6 µg/mL and the MIC (Cryptococcus neoformans [6]; Cryptococcus neoformans, 48 h, C21F3, 30°C, OD600 48 h, Table 15) was 5.2 µM. It also gave an MIC (Cryptococcus neoformans [6]; Cryptococcus neoformans, 48 h, H99, 30°C, OD600 48 h) of 3.1 µg/mL, an MIC (Cryptococcus neoformans [6]; Cryptococcus neoformans, 48 h, H99, 30°C, OD600 48 h, Table 15) of 10.1 µM and an MIC (Cryptococcus neoformans [6]; Cryptococcus neoformans, 48 h, JEC21, 30°C, OD600 48 h) of 1.6 µg/mL. The MIC (Cryptococcus neoformans [6]; Cryptococcus neoformans, 48 h, JEC21, 30°C, OD600 48 h, Table 15) was 5.2 µM, the MIC (Cryptococcus neoformans [6]; Cryptococcus neoformans, C. neoformans (C21F3), 30°C) was 5.2 µM and the MIC (Cryptococcus neoformans [6]; Cryptococcus neoformans, C. neoformans (H99), Sensitive, RPMI 1640 (0.2% Glucose), 37° C.) was 3.1 µg/mL. For the same compound, the MIC (Cryptococcus neoformans [6]; Cryptococcus neoformans, C. neoformans (H99), 30°C) was 10.1 µM, the MIC (Cryptococcus neoformans [6]; Cryptococcus neoformans, C. neoformans (JEC21), Sensitive, RPMI 1640 (0.2% Glucose), 37° C.) was 1.6 µg/mL and the MIC (Cryptococcus neoformans [6]; Cryptococcus neoformans, C. neoformans (JEC21), 30°C) was 5.2 µM. It also gave an MIC50 (Cryptococcus neoformans [6]; Cryptococcus neoformans, Cryptococcus neoformans CN1) of 4 µg/mL (≈ 13.1 µM), an MFC (Cryptococcus gattii [7]; C. gattii (C751)) of 37.5 µg/mL (≈ 122 µM) and an MFC (Cryptococcus gattii [7]; C. gattii (WM275)) greater than 100 µg/mL. The MFC (Candida lusitaniae [8]) was 50 µg/mL (≈ 163 µM).
